Consider 38 compounds from US20180251431A1 (VERTEX PHARMACEUTICALS INCORPORATED, priority 2016, published 2018).

This assay has as its system HEK293 cells. Kind of assay: HEK293 VLCFA-LPC IC50 determination (13C-labeled C26:0 LPC by UHPLC/MS). Conditions: Homo sapiens, HEK293, 48 h, average of one or more replicates; 13C-labeled C26:0 LPC, 48 hours; read-out: Average HEK293 IC50. In kind it is cell-based, human. Summed up:
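Suspension HEK293 cells (final 0.5 million/mL after mixing with equal volume) incubated 48 hours with compound plus 13C-acetate (1.0 mg/mL in added media), shaking at 37° C. Lipids extracted with hexane/isopropanol or methanol, C13:0 LPC standard. UHPLC/MS of 13C-labeled C26:0 LPC (638.500/104.100 m/z); IC50 by four-parameter fit.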
Take `N#Cc1cnccc1-n1ccc(NC(=O)C2(c3ccccc3F)CC2)n1` [Compound 335, N-[1-(3-cyano-4-pyridyl)pyrazol-3-yl]-1-(2-fluorophenyl)cyclopropanecarboxamide]: the half-maximal inhibitory concentration (IC50) is over 5000 nM.

For `COc1nccc(-n2ccc(NC(=O)C3(c4ccccc4F)CC3)n2)c1C#N` [Compound 336, N-[1-(3-cyano-2-methoxy-4-pyridyl)pyrazol-3-yl]-1-(2-fluorophenyl)cyclopropanecarboxamide], the IC50 is over 5000 nM.

As for `Cc1cc(-n2ccc(NC(=O)C3(c4ccccc4F)CC3)n2)nc(C)n1` [Compound 337, N-[1-(2,6-dimethylpyrimidin-4-yl)pyrazol-3-yl]-1-(2-fluorophenyl)cyclopropanecarboxamide], the IC50 is over 5000 nM.

For the compound `COc1ncc(-n2ccc(NC(=O)C3(c4ccccc4F)CC3)n2)cn1` [Compound 338, 1-(2-fluorophenyl)-N-[1-(2-methoxylpyrimidin-5-yl)pyrazol-3-yl]cyclopropanecarboxamide], the half-maximal inhibitory concentration (IC50) is over 5000 nM.

For `Cc1ncnc(C)c1-n1ccc(NC(=O)C2(c3ccccc3F)CC2)n1` [Compound 339, N-[1-(4,6-dimethylpyrimidin-5-yl)pyrazol-3-yl]-1-(2-fluorophenyl)cyclopropanecarboxamide], the half-inhibitory concentration (IC50) was over 5000 nM.

In the case of `COc1nccc(-n2ccc(NC(=O)C3(c4ccccc4F)CC3)n2)c1C` [Compound 340, 1-(2-fluorophenyl)-N-[1-(2-methoxy-3-methyl-4-pyridyl)pyrazol-3-yl]cyclopropanecarboxamide], the concentration for half-maximal inhibition (IC50) is over 5000 nM.

Take `Cc1ncncc1-n1ccc(NC(=O)C2(c3ccccc3F)CC2)n1` [Compound 341, 1-(2-fluorophenyl)-N-[1-(4-methylpyrimidin-5-yl)pyrazol-3-yl]cyclopropanecarboxamide]: the concentration for half-maximal inhibition (IC50) is 700 nM.

`CC(C)Oc1cc(-n2ccc(NC(=O)C3(c4ccccc4F)CC3)n2)ccn1` [Compound 342, 1-(2-fluorophenyl)-N-[1-(2-isopropoxy-4-pyridyl)pyrazol-3-yl]cyclopropanecarboxamide]: the IC50 is over 5000 nM.

In the case of `Cc1nccc(-n2ccc(NC(=O)C3(c4ccccc4F)CC3)n2)c1C` [Compound 343, N-[1-(2,3-dimethyl-4-pyridyl)pyrazol-3-yl]-1-(2-fluorophenyl)cyclopropanecarboxamide], the IC50 was over 5000 nM.

For the compound `Cc1ncc(C#N)c(-n2ccc(NC(=O)C3(c4ccccc4F)CC3)n2)n1` [Compound 344, N-[1-(5-cyano-2-methyl-pyrimidin-4-yl)pyrazol-3-yl]-1-(2-fluorophenyl)cyclopropanecarboxamide], the half-inhibitory concentration (IC50) was over 5000 nM.

Regarding `COc1cncc(F)c1-n1ccc(NC(=O)C2(c3ccccc3F)CC2)n1` [Compound 345, N-[1-(3-fluoro-5-methoxy-4-pyridyl)pyrazol-3-yl]-1-(2-fluorophenyl)cyclopropanecarboxamide], the IC50 was over 2000 nM.

With `Cc1cc(-n2ccc(NC(=O)C3(c4ccccc4F)CC3)n2)cc(C#N)n1` [Compound 346, N-[1-(2-cyano-6-methyl-4-pyridyl)pyrazol-3-yl]-1-(2-fluorophenyl)cyclopropanecarboxamide], the 50% inhibitory concentration (IC50) is over 5000 nM.

As to `COc1cncc(OC)c1-n1ccc(NC(=O)C2(c3ccccc3F)CC2)n1` [Compound 347, N-[1-(3,5-dimethoxy-4-pyridyl)pyrazol-3-yl]-1-(2-fluorophenyl)cyclopropanecarboxamide], the 50% inhibitory concentration (IC50) was over 5000 nM.

Consider `COc1ncc(-n2ccc(NC(=O)C3(c4ccccc4F)CC3)n2)cc1F` [Compound 348, N-[1-(5-fluoro-6-methoxy-3-pyridyl)pyrazol-3-yl]-1-(2-fluorophenyl)cyclopropanecarboxamide], for which the IC50 was 33 nM.

As for `Cc1ncc(-n2ccc(NC(=O)C3(c4ccccc4F)CC3)n2)cc1F` [Compound 349, N-[1-(5-fluoro-6-methyl-3-pyridyl)pyrazol-3-yl]-1-(2-fluorophenyl)cyclopropanecarboxamide], the IC50 was found to be 440 nM.

On to `Cc1cc(-n2ccc(NC(=O)C3(c4ccccc4F)CC3)n2)c(C)cn1` [Compound 350, N-[1-(2,5-dimethyl-4-pyridyl)pyrazol-3-yl]-1-(2-fluorophenyl)cyclopropanecarboxamide], for which the IC50 was over 5000 nM.

For the compound `Cc1c(-n2ccc(NC(=O)C3(c4ccccc4F)CC3)n2)ccnc1F` [Compound 351, N-[1-(2-fluoro-3-methyl-4-pyridyl)pyrazol-3-yl]-1-(2-fluorophenyl)cyclopropanecarboxamide], the IC50 stood at 420 nM.

In the case of `N#Cc1cc(F)cc(-n2ccc(NC(=O)C3(c4ccccc4F)CC3)n2)c1` [Compound 352, N-[1-(3-cyano-5-fluoro-phenyl)pyrazol-3-yl]-1-(2-fluorophenyl)cyclopropanecarboxamide], the IC50 was over 5000 nM.

`COc1ncncc1-n1ccc(NC(=O)C2(c3ccccc3F)CC2)n1` [Compound 353, 1-(2-fluorophenyl)-N-[1-(4-methoxypyrimidin-5-yl)pyrazol-3-yl]cyclopropanecarboxamide]: the concentration for half-maximal inhibition (IC50) is 2200 nM.

With `CC(C)(O)c1ncc(-n2ccc(NC(=O)C3(c4ccccc4F)CC3)n2)cc1F` [Compound 354, N-[1-[5-fluoro-6-(1-hydroxy-1-methyl-ethyl)-3-pyridyl]pyrazol-3-yl]-1-(2-fluorophenyl)cyclopropanecarboxamide], the half-maximal inhibitory concentration (IC50) is over 5000 nM.

Take `O=C(Nc1ccn(-c2ccc(O)c(F)c2)n1)C1(c2ccccc2F)CC1` [Compound 355, N-[1-(3-fluoro-4-hydroxy-phenyl)pyrazol-3-yl]-1-(2-fluorophenyl)cyclopropanecarboxamide]: the IC50 was found to be 1700 nM.

With `O=C(Nc1ccn(-c2cnnc(O)c2)n1)C1(c2ccccc2F)CC1` [Compound 356, 1-(2-fluorophenyl)-N-[1-(6-hydroxypyridazin-4-yl)pyrazol-3-yl]cyclopropanecarboxamide], the half-inhibitory concentration (IC50) is over 5000 nM.

Turning to `O=C(Nc1ccn(-c2cc(F)c(O)c(F)c2)n1)C1(c2ccccc2F)CC1` [Compound 357, N-[1-(3,5-difluoro-4-hydroxy-phenyl)pyrazol-3-yl]-1-(2-fluorophenyl)cyclopropanecarboxamide], the IC50 is over 5000 nM.

For the compound `COc1cc(-n2ccc(NC(=O)C3(c4ccccc4F)CC3)n2)ncn1` [Compound 358, 1-(2-fluorophenyl)-N-(1-(6-methoxypyrimidin-4-yl)-1H-pyrazol-3-yl)cyclopropane-1-carboxamide], the IC50 was over 5000 nM.

As for `COc1cc(-n2ccc(NC(=O)C3(c4ccccc4F)CC3)n2)nc(C)n1` [Compound 359, 1-(2-fluorophenyl)-N-[1-(6-methoxy-2-methyl-pyrimidin-4-yl)pyrazol-3-yl]cyclopropanecarboxamide], the concentration for half-maximal inhibition (IC50) was over 5000 nM.

Take `Cc1cncnc1-n1ccc(NC(=O)C2(c3ccccc3F)CC2)n1` [Compound 360, 1-(2-fluorophenyl)-N-[1-(5-methylpyrimidin-4-yl)pyrazol-3-yl]cyclopropanecarboxamide]: the IC50 came out at 69 nM.

As for `O=C(Nc1ccn(-c2ncncc2F)n1)C1(c2ccccc2F)CC1` [Compound 361, 1-(2-fluorophenyl)-N-[1-(5-fluoropyrimidin-4-yl)pyrazol-3-yl]cyclopropanecarboxamide], the IC50 came out at 150 nM.

With `CN(C(=O)Cc1ccccc1F)c1ccn(-c2ccccc2)n1` [Compound 362, 2-(2-fluorophenyl)-N-methyl-N-(1-phenyl-1H-pyrazol-3-yl)acetamide], the IC50 is over 5000 nM.

Regarding `CN(C(=O)C1(c2ccccc2F)CC1)c1ccn(-c2ccnc(F)c2)n1` [Compound 363, 1-(2-fluorophenyl)-N-(1-(2-fluoropyridin-4-yl)-1H-pyrazol-3-yl)-N-methylcyclopropane-1-carboxamide], the IC50 was over 5000 nM.

On to `O=C(Nc1nn(-c2ccnc(F)c2)cc1F)C1(c2ccccc2F)CC1` [Compound 365, N-(4-fluoro-1-(2-fluoropyridin-4-yl)-1H-pyrazol-3-yl)-1-(2-fluorophenyl)cyclopropane-1-carboxamide], for which the concentration for half-maximal inhibition (IC50) is 410 nM.

Regarding `Cc1cn(-c2ccccc2)nc1NC(=O)C1(c2cccc(F)c2)CCC1` [Compound 372, 1-(3-fluorophenyl)-N-(4-methyl-1-phenyl-pyrazol-3-yl)cyclobutanecarboxamide], the IC50 was determined as 3700 nM.

On to `Cc1ccccc1C1(C(=O)Nc2ccn(-c3ccncc3)n2)CC1` [Compound 373, 1-(o-tolyl)-N-[1-(4-pyridyl)pyrazol-3-yl]cyclopropanecarboxamide], for which the IC50 was 140 nM.

As for `Cc1csc(-n2ccc(NC(=O)C3(c4ccccc4F)CC3)n2)n1` [Compound 374, 1-(2-fluorophenyl)-N-(1-(4-methylthiazol-2-yl)-1H-pyrazol-3-yl)cyclopropane-1-carboxamide], the IC50 was 470 nM.

For the compound `O=C(Nc1ccn(-c2ncco2)n1)C1(c2ccccc2F)CC1` [Compound 375, 1-(2-fluorophenyl)-N-(1-oxazol-2-ylpyrazol-3-yl)cyclopropanecarboxamide], the IC50 amounted to 500 nM.

For the compound `Cc1cc(-n2ccc(NC(=O)C3(c4ccccc4F)CC3)n2)cnc1F` [Compound 376, N-[1-(6-fluoro-5-methyl-3-pyridyl)pyrazol-3-yl]-1-(2-fluorophenyl)cyclopropanecarboxamide], the 50% inhibitory concentration (IC50) amounted to 65 nM.

For the compound `O=C(Nc1ccn(-c2ccc(F)nc2)n1)C1(c2ccccc2F)CC1` [Compound 377, 1-(2-fluorophenyl)-N-[1-(6-fluoro-3-pyridyl)pyrazol-3-yl]cyclopropanecarboxamide], the IC50 is 23 nM.

Regarding `COc1ncc(-n2ccc(NC(=O)C3(c4ccccc4F)CC3)n2)cc1Cl` [Compound 378, N-(1-(5-chloro-6-methoxypyridin-3-yl)-1H-pyrazol-3-yl)-1-(2-fluorophenyl)cyclopropane-1-carboxamide], the IC50 was 120 nM.

In the case of `O=C(Nc1ccn(-c2cnc(Cl)c(Cl)c2)n1)C1(c2ccccc2F)CC1` [Compound 379, N-[1-(5,6-dichloro-3-pyridyl)pyrazol-3-yl]-1-(2-fluorophenyl)cyclopropanecarboxamide], the concentration for half-maximal inhibition (IC50) stood at 120 nM.
